This is an account of results in DBAASP.

SMILES strings stand for the structures. Values after ≈ are worked out from the molar mass of the structure shown.

Usually MIC stands for the least concentration at which growth counts as inhibited.

Holding throughout (assay): ≥ marks a high value that may be exact or a test limit, other limits are often not marked, values filed in µg/mL are converted to µM
For test [1], the system named is Bacillus subtilis.
In test [2] the test system is Candida albicans.
Test [3] relates to Escherichia coli.
The test system of test [4] is Micrococcus luteus.
Test [5] deals with Proteus mirabilis.
Test [6] relates to Pseudomonas aeruginosa.
Test [7] concerns Saccharomyces cerevisiae.
In test [8] the test system is Salmonella typhimurium.
Test [9] relates to Serratia marcescens.
Test [10] relates to Shigella dysenteriae.
For test [11], the system named is Staphylococcus epidermidis.
In test [12] the test system is Bacillus subtilis 168.
Test [13] has as its system Candida albicans F7-39/IDE99.
In test [14] the test system is Escherichia coli B.
Test [15] deals with Micrococcus luteus CCM 144.
Test [16] concerns Pseudomonas aeruginosa ATCC 27853.
For test [17], the system named is Staphylococcus aureus 1.
In test [18] the test system is Staphylococcus aureus ATCC 43300.
Test [19] deals with Staphylococcus aureus.
Test [20] concerns Acinetobacter baumannii ATCC 7978.
Test [21] relates to Klebsiella pneumoniae WGLW2.
Test [22] concerns Pseudomonas aeruginosa PA14.
The subject of test [23] is Staphylococcus aureus ATCC 29231.
For test [24], the system named is Acinetobacter baumannii ATCC 19606.
Test [25] relates to Candida parapsilosis ATCC 22019.
Test [26] has as its system Enterococcus faecalis ATCC 29212.
The subject of test [27] is Escherichia coli ATCC 25922.
Test [28] deals with Escherichia coli ML-35p.
The test system of test [29] is Klebsiella pneumoniae ATCC 13883.
Test [30] has as its system Staphylococcus aureus ATCC 25923.
The subject of test [31] is Staphylococcus aureus ATCC BAA-44.
The test system of test [32] is Staphylococcus aureus ST1065.
The test system of test [33] is Streptococcus pyogenes ATCC 19615.
Test [34] relates to Bacillus subtilis ATCC 6633.
Test [35] has as its system Candida albicans ATCC 2002.
The subject of test [36] is Staphylococcus aureus ATCC 2592.

Consider `CC[C@H](C)[C@H](NC(=O)CN)C(=O)N[C@@H](CC(C)C)C(=O)N[C@@H](CC(=O)O)C(=O)N[C@H](C(=O)N[C@@H](CC(C)C)C(=O)N[C@@H](CCCCN)C(=O)N[C@@H](CCC(N)=O)C(=O)N[C@@H](Cc1ccccc1)C(=O)N[C@@H](C)C(=O)N[C@@H](CCCCN)C(=O)NCC(=O)N[C@H](C(=O)NCC(=O)N[C@@H](CCCCN)C(=O)N[C@@H](CC(=O)O)C(=O)N[C@@H](CC(C)C)C(=O)N[C@H](C(=O)N[C@@H](CCCCN)C(=O)NCC(=O)N[C@@H](C)C(=O)N[C@@H](C)C(=O)N[C@@H](CCC(N)=O)C(=O)NCC(=O)N[C@H](C(=O)O)C(C)C)C(C)C)C(C)C)[C@@H](C)O` [GILDTLKQFAKGVGKDLVKGAAQGV], for which the MIC in test [1] is at least 39.8 µM; in [2], above 39.8 µM; in [3] it was 19.9 µM (≈ 50 µg/mL); in [4], 1.99 µM (≈ 5 µg/mL); in test [5], 19.9 µM (≈ 50 µg/mL); in [6], 39.8 µM (≈ 100 µg/mL). The MIC was 19.9 µM (≈ 50 µg/mL) in test [7]; at least 39.8 µM in test [8]; at least 39.8 µM in test [9]; 19.9 µM (≈ 50 µg/mL) in test [10]; 29.8 µM (≈ 75 µg/mL) in test [11].

On to `CC[C@H](C)[C@H](NC(=O)CN)C(=O)N[C@@H](CC(C)C)C(=O)N[C@@H](CCCCN)C(=O)N[C@@H](CO)C(=O)N[C@@H](CC(C)C)C(=O)N[C@@H](CC(C)C)C(=O)N[C@@H](CCCCN)C(=O)N[C@@H](CCCCN)C(=O)N[C@@H](CC(C)C)C(=O)N[C@@H](CCCCN)C(=O)N[C@@H](CCCCN)C(=O)N[C@H](C(=O)N[C@H](C(=O)N[C@@H](C)C(=O)N[C@@H](CCCCN)C(N)=O)[C@@H](C)CC)[C@@H](C)CC` [GILKSLLKKLKKIIAK], for which the MIC in [12] was determined as 7 µM (≈ 12.6 µg/mL); in test [13], 24 µM (≈ 43 µg/mL); in [14] it was 10 µM (≈ 17.9 µg/mL); in test [15] it was 3 µM (≈ 5.38 µg/mL); in test [16], 5 µM (≈ 8.97 µg/mL); in [6], 8.9 µM (≈ 16 µg/mL). Also, the MIC was 4.3 µM (≈ 7.71 µg/mL) in test [17], 17 µM (≈ 30.5 µg/mL) in [18], 10 µM (≈ 17.9 µg/mL) in test [19] and 2.2 µM (≈ 3.95 µg/mL) in [11].

With `CC[C@H](C)[C@H](NC(=O)[C@H](CCCCN)NC(=O)[C@H](Cc1c[nH]c2ccccc12)NC(=O)[C@H](Cc1c[nH]c2ccccc12)NC(=O)[C@@H](NC(=O)[C@H](CCCCN)NC(=O)[C@H](Cc1c[nH]c2ccccc12)NC(=O)[C@@H](N)CC(C)C)[C@@H](C)CC)C(=O)N[C@@H](Cc1c[nH]c2ccccc12)C(=O)N[C@@H](CCCN=C(N)N)C(=O)N[C@H](C(=O)N[C@@H](Cc1c[nH]c2ccccc12)C(=O)N[C@@H](Cc1c[nH]c2ccccc12)C(=O)N[C@@H](CC(N)=O)C(=O)N[C@@H](Cc1c[nH]c2ccccc12)C(=O)N[C@@H](CCCN=C(N)N)C(=O)O)C(C)C` [LWKIWWKIWRVWWNWR], the MIC in [20], in [21], in test [22] and in test [23] was at least 52.4 µM in each case.

Take `CC[C@H](C)[C@H](NC(=O)[C@H](Cc1cnc[nH]1)NC(=O)[C@@H]1CCCN1C(=O)[C@@H](NC(=O)[C@H](CCSC)NC(=O)[C@H](CO)NC(=O)[C@H](CC(C)C)NC(=O)[C@@H](N)Cc1ccccc1)[C@@H](C)CC)C(=O)N[C@H](C(=O)N[C@@H](CO)C(=O)NCC(=O)N[C@H](C(=O)N[C@@H](C)C(=O)N[C@@H](C)C(=O)N[C@@H](CC(C)C)C(=O)N[C@@H](C)C(=O)N[C@@H](CCCCN)C(=O)N[C@@H](Cc1cnc[nH]1)C(=O)N[C@@H](CC(C)C)C(N)=O)C(C)C)C(C)C` [FLSMIPHIVSGVAALAKHL]: the MIC was 6.25 µM (≈ 12.5 µg/mL) in test [24]; at least 50 µM in test [25]; 50 µM (≈ 100 µg/mL) in test [26]; 25 µM (≈ 50.1 µg/mL) in test [27]; 25 µM (≈ 50.1 µg/mL) in test [28]; 25 µM (≈ 50.1 µg/mL) in test [29]. The MIC in [16] amounted to 100 µM (≈ 200 µg/mL); in [7] it was 12.5 µM (≈ 25 µg/mL); in [30] it was 6.25 µM (≈ 12.5 µg/mL); in [18], 6.25 µM (≈ 12.5 µg/mL); in test [31], 6.25 µM (≈ 12.5 µg/mL); in [32], 6.25 µM (≈ 12.5 µg/mL). Also, the MIC in [33] worked out at 3.12 µM (≈ 6.25 µg/mL).

`CC(C)C[C@H](NC(=O)CNC(=O)[C@@H](NC(=O)[C@H](CCCCN)NC(=O)CNC(=O)[C@H](C)NC(=O)[C@H](Cc1c[nH]c2ccccc12)NC(=O)[C@H](CCCCN)NC(=O)[C@H](CC(C)C)NC(=O)[C@H](CC(C)C)NC(=O)[C@H](Cc1ccccc1)NC(=O)[C@H](CCCCN)NC(=O)[C@H](CC(C)C)NC(=O)[C@@H](NC(=O)[C@H](Cc1ccccc1)NC(=O)[C@@H](N)Cc1ccccc1)C(C)C)C(C)C)C(=O)N[C@@H](CCC(=O)O)C(=O)N[C@@H](Cc1cnc[nH]1)C(=O)N[C@@H](CC(C)C)C(=O)N[C@@H](C)C(=O)N[C@H]1CSSC[C@@H](C(=O)O)NC(=O)[C@H](Cc2c[nH]c3ccccc23)NC(=O)[C@H](CC(N)=O)NC(=O)[C@H](CCCCN)NC(=O)[C@H](Cc2ccccc2)NC(=O)[C@H](CCCCN)NC1=O` [FFVLKFLLKWAGKVGLEHLACKFKNWC]: the minimal inhibitory concentration (MIC) in [34] was 0.465 µM (≈ 1.5 µg/mL); in test [35] it was 3.87 µM (≈ 12.5 µg/mL); in test [27], 1.94 µM (≈ 6.25 µg/mL); in [10], 0.465 µM (≈ 1.5 µg/mL); in test [36], 3.87 µM (≈ 12.5 µg/mL).

For `CC[C@H](C)[C@H](NC(=O)CN)C(=O)N[C@@H](CCSC)C(=O)N[C@@H](CO)C(=O)N[C@@H](CO)C(=O)N[C@@H](CC(C)C)C(=O)N[C@@H](CCSC)C(=O)N[C@@H](CCCCN)C(=O)N[C@@H](CCCCN)C(=O)N[C@@H](CC(C)C)C(=O)N[C@@H](CCCCN)C(=O)N[C@@H](CCCCN)C(=O)N[C@H](C(=O)N[C@H](C(=O)N[C@@H](CCCCN)C(=O)N[C@@H](CCCCN)C(N)=O)[C@@H](C)CC)[C@@H](C)CC` [GIMSSLMKKLKKIIKK], the MIC in test [12] was 7 µM (≈ 12.9 µg/mL); in test [13], 6.3 µM (≈ 11.6 µg/mL); in test [14], 22 µM (≈ 40.6 µg/mL); in [15], 3 µM (≈ 5.54 µg/mL); in [16], 7.1 µM (≈ 13.1 µg/mL); in test [6], 9.9 µM (≈ 18.3 µg/mL). The MIC in [17] worked out at 18 µM (≈ 33.2 µg/mL); in test [18], 54 µM (≈ 99.7 µg/mL); in [19], 65 µM (≈ 120 µg/mL); in test [11], 1.7 µM (≈ 3.14 µg/mL).
